Measurements as given in ChEMBL document CHEMBL1143513, “Structure-activity relationships for 2-anilino-6-phenylpyrido[2,3-d]pyrimidin-7(8H)-ones as inhibitors of the cellular checkpoint kinase Wee1” (Bioorg Med Chem Lett, 2005).

Assays:
Wee1-like protein kinase = Wee1-like protein kinase (Homo sapiens, UniProt P30291); assay: Inhibition of checkpoint kinase Wee1
[1] = Inhibition of c-Src tyrosine kinase
[2] = Inhibition of Platelet-derived growth factor receptor
[3] = biological target: Fibroblast growth factor receptor (Homo sapiens, UniProt P22607+P11362+P22455+P21802); assay: Inhibition of Fibroblast growth factor receptor; assay type: protein assay

Sequence of Wee1-like protein kinase (P30291 whole entry): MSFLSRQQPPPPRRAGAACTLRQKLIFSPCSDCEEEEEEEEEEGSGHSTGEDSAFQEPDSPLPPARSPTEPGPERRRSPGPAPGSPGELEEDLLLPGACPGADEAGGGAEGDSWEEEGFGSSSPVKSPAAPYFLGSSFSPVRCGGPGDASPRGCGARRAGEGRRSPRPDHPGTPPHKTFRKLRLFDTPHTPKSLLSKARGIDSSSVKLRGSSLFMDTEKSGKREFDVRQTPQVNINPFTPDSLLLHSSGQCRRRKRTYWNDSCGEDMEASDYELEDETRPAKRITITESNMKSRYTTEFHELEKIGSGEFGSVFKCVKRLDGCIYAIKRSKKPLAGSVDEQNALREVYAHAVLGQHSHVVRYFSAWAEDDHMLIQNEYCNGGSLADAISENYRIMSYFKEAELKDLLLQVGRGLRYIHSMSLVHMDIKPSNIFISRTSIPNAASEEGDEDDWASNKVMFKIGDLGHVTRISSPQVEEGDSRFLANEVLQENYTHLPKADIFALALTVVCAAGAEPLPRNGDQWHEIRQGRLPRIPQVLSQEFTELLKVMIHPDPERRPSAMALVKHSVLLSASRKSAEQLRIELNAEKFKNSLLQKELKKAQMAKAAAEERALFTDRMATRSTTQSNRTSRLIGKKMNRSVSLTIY

Row | SMILES | IC50 (Wee1-like protein kinase) | IC50 [1] | IC50 [2] | IC50 [3]
1 | CCN(CC)CCOc1ccc(Nc2ncc3cc(-c4c(Cl)cc(O)cc4Cl)c(=O)n(C)c3n2)cc1 | 80 nM | 8 nM | – | –
2 | Cn1c(=O)c(-c2c(Cl)cccc2Cl)cc2cnc(Nc3ccccc3)nc21 | 2600 nM | 24 nM | – | –
3 | CN(C)CCOC(=O)CCCc1ccc(Nc2ncc3cc(-c4c(Cl)cccc4Cl)c(=O)n(C)c3n2)cc1 | 124 nM | 7 nM | – | –
4 | Cn1c(=O)c(-c2c(Cl)cccc2Cl)cc2cnc(Nc3ccc(CCCC4N=NN=N4)cc3)nc21 | 69 nM | 25 nM | – | –
5 | COc1cc(C)c(-c2cc3cnc(Nc4ccccc4)nc3n(C)c2=O)c(C)c1 | > 50000 nM | 250 nM | – | –
6 | Cn1c(=O)c(-c2c(Cl)ccc(CO)c2Cl)cc2cnc(Nc3ccccc3)nc21 | 3500 nM | 39 nM | – | –
7 | Cn1c(=O)c(-c2c(Cl)c(O)cc(O)c2Cl)cc2cnc(Nc3ccccc3)nc21 | 140 nM | 11 nM | – | –
8 | COc1cccc(O)c1-c1cc2cnc(Nc3ccccc3)nc2n(C)c1=O | 11000 nM | 50 nM | – | –
9 | Cn1c(=O)c(-c2c(Cl)ccc(CN)c2Cl)cc2cnc(Nc3ccccc3)nc21 | 31000 nM | 62 nM | – | –
10 | COc1cc(OC)cc(-c2cc3cnc(N)nc3nc2NC(=O)NC(C)(C)C)c1 | – | – | > 50000 nM | –
11 | Cn1c(=O)c(-c2c(O)cccc2O)cc2cnc(Nc3ccccc3)nc21 | 27000 nM | 720 nM | – | –
12 | CCN(CC)CCOc1ccc(Nc2ncc3c(C)c(-c4ccccc4Cl)c(=O)n(C)c3n2)cc1 | 550 nM | > 50000 nM | – | –
13 | Cc1cccc(C)c1-c1c(C)c2cnc(Nc3ccccc3)nc2n(C)c1=O | 1200 nM | 15000 nM | – | –
14 | COc1cc(OC)cc(-c2cc3cnc(NCCCN4CCOCC4)nc3nc2NC(=O)NC(C)(C)C)c1 | – | > 50000 nM | – | 30 nM
15 | Cn1c(=O)c(-c2c(C(F)(F)F)cccc2C(F)(F)F)cc2cnc(Nc3ccccc3)nc21 | 41000 nM | 8100 nM | – | –
16 | Cn1c(=O)c(-c2c(Cl)cccc2Cl)cc2cnc(Nc3ccc(OCCCC(=O)O)cc3)nc21 | 86 nM | 4 nM | – | –
17 | Cn1c(=O)c(-c2c(Cl)ccc(O)c2Cl)cc2cnc(Nc3ccc(OCCCC(=O)O)cc3)nc21 | 40 nM | 99 nM | – | –
18 | Cc1ccc(Cl)c(-c2cc3cnc(Nc4ccccc4)nc3n(C)c2=O)c1Cl | 50000 nM | 2800 nM | – | –
19 | Cc1cc(O)cc(C)c1-c1cc2cnc(Nc3ccccc3)nc2n(C)c1=O | 580 nM | 17 nM | – | –
20 | COc1cc(Cl)c(-c2cc3cnc(Nc4ccccc4)nc3n(C)c2=O)c(Cl)c1 | > 50000 nM | 6500 nM | – | –
21 | Cn1c(=O)c(-c2c(Cl)cccc2Cl)cc2cnc(Nc3ccc(CCCC(=O)OCCN4CCCCC4)cc3)nc21 | 142 nM | 11 nM | – | –
22 | CC(C)(C)NC(=O)Nc1nc2nc(N)ncc2cc1-c1c(Cl)cccc1Cl | – | – | 1100 nM | –
23 | CCN(CC)CCOc1ccc(Nc2ncc3cc(-c4c(Cl)cccc4Cl)c(=O)n(C)c3n2)cc1 [PD-0166285] | – | – | 79000 nM | –
24 | COc1cccc(OC)c1-c1cc2cnc(Nc3ccccc3)nc2n(C)c1=O | > 50000 nM | 980 nM | – | –
25 | Cn1c(=O)c(-c2c(Cl)cc(O)cc2Cl)cc2cnc(Nc3ccc(OCCCC(=O)O)cc3)nc21 | 40 nM | 6 nM | – | –
26 | Cn1c(=O)c(-c2c(Cl)ccc(O)c2Cl)cc2cnc(Nc3ccccc3)nc21 | 74 nM | 9 nM | – | –

The next lines start with results.

Row | IC50 (Wee1-like protein kinase) | IC50 [1] | SMILES | IC50 [2] | IC50 [3]
27 | 95 nM | 4 nM | Cn1c(=O)c(-c2c(Cl)cccc2Cl)cc2cnc(Nc3ccc(CCCC(=O)OCCN4CCOCC4)cc3)nc21 | – | –
28 | 4500 nM | 58 nM | Cc1cccc(Br)c1-c1cc2cnc(Nc3ccccc3)nc2n(C)c1=O | – | –
29 | 990 nM | 14 nM | Cc1cccc(C)c1-c1cc2cnc(Nc3ccccc3)nc2n(C)c1=O | – | –
30 | 33000 nM | 39000 nM | COc1cc(OC)c(C)c(-c2cc3cnc(Nc4ccccc4)nc3n(C)c2=O)c1C | – | –
31 | 410 nM | > 50000 nM | Cc1c(-c2ccccc2Cl)c(=O)n(C)c2nc(Nc3ccccc3)ncc12 | – | –
32 | 1000 nM | 110 nM | Cc1c(O)cc(O)c(C)c1-c1cc2cnc(Nc3ccccc3)nc2n(C)c1=O | – | –
33 | 540 nM | 360 nM | CCN(CC)CCOc1ccc(Nc2ncc3c(C)c(-c4c(C)cccc4C)c(=O)n(C)c3n2)cc1 | – | –
34 | 410 nM | 47 nM | Cn1c(=O)c(-c2c(Br)cccc2Br)cc2cnc(Nc3ccccc3)nc21 | – | –
35 | 1500 nM | 22 nM | Cn1c(=O)c(-c2c(O)cccc2Cl)cc2cnc(Nc3ccccc3)nc21 | – | –
36 | 3400 nM | 120 nM | COc1cccc(Cl)c1-c1cc2cnc(Nc3ccccc3)nc2n(C)c1=O | – | –
37 | 3200 nM | 280 nM | Cn1c(=O)c(-c2c(Cl)ccc(C(=O)O)c2Cl)cc2cnc(Nc3ccccc3)nc21 | – | –
38 | 990 nM | 23 nM | CCN(CC)CCOc1ccc(Nc2ncc3cc(-c4c(C)cccc4C)c(=O)n(C)c3n2)cc1 | – | –
39 | > 50000 nM | 270 nM | Cn1c(=O)c(-c2c(Cl)ccc(Cl)c2Cl)cc2cnc(Nc3ccccc3)nc21 | – | –
40 | 1900 nM | 12 nM | Cc1cccc(Cl)c1-c1cc2cnc(Nc3ccccc3)nc2n(C)c1=O | – | –
41 | 220 nM | 73 nM | Cn1c(=O)c(-c2c(Cl)cc(O)cc2Cl)cc2cnc(Nc3ccccc3)nc21 | – | –
42 | > 50000 nM | 780 nM | CC(=O)Nc1ccc(Cl)c(-c2cc3cnc(Nc4ccccc4)nc3n(C)c2=O)c1Cl | – | –
43 | 2600 nM | 90 nM | Cn1c(=O)c(-c2c(Cl)ccc(N)c2Cl)cc2cnc(Nc3ccccc3)nc21 | – | –

Row | IC50 (Wee1-like protein kinase) | IC50 [1] | SMILES | IC50 [2] | IC50 [3]
44 | 250 nM | 14 nM | Cn1c(=O)c(-c2c(Cl)cccc2Cl)cc2cnc(Nc3ccc(OCC(N)=O)cc3)nc21 | – | –
45 | 3700 nM | 270 nM | Cn1c(=O)c(-c2c(Cl)cc(N)cc2Cl)cc2cnc(Nc3ccccc3)nc21 | – | –
46 | 9700 nM | 66 nM | Cn1c(=O)c(-c2c(F)cccc2F)cc2cnc(Nc3ccccc3)nc21 | – | –
47 | 3600 nM | 1500 nM | CC(=O)Nc1cc(Cl)c(-c2cc3cnc(Nc4ccccc4)nc3n(C)c2=O)c(Cl)c1 | – | –
48 | 120 nM | 13 nM | Cn1c(=O)c(-c2c(Cl)cccc2Cl)cc2cnc(Nc3ccc(CC(N)=O)cc3)nc21 | – | –
49 | > 50000 nM | 210 nM | Cn1c(=O)c(-c2c(Cl)cccc2C(F)(F)F)cc2cnc(Nc3ccccc3)nc21 | – | –
50 | 8600 nM | 130 nM | Cn1c(=O)c(-c2c(Cl)ccc(C(N)=O)c2Cl)cc2cnc(Nc3ccccc3)nc21 | – | –
51 | 260 nM | 28 nM | Cn1c(=O)c(-c2c(Cl)cccc2Cl)cc2cnc(Nc3ccc(CCCCC(N)=O)cc3)nc21 | – | –
52 | 90 nM | 9 nM | Cn1c(=O)c(-c2c(Cl)cccc2Cl)cc2cnc(Nc3ccc(CC(N)C(=O)O)cc3)nc21 (stereo not given) | – | –
53 | 150 nM | 6 nM | CCN(CC)CCOc1ccc(Nc2ncc3cc(-c4c(Cl)ccc(O)c4Cl)c(=O)n(C)c3n2)cc1 | – | –
54 | > 50000 nM | > 50000 nM | Cc1c(-c2ccccc2)c(=O)n(C)c2nc(Nc3ccccc3)ncc12 | – | –
55 | > 50000 nM | > 50000 nM | COc1cc(OC)c(Cl)c(-c2cc3cnc(Nc4ccccc4)nc3n(C)c2=O)c1Cl | – | –
56 | 2400 nM | 43 nM | Cn1c(=O)c(-c2c(F)cccc2Cl)cc2cnc(Nc3ccccc3)nc21 | – | –
57 | > 50000 nM | 540 nM | COc1ccc(Cl)c(-c2cc3cnc(Nc4ccccc4)nc3n(C)c2=O)c1Cl | – | –
58 | 8600 nM | 330 nM | Cn1c(=O)c(-c2c(Cl)cc(Cl)cc2Cl)cc2cnc(Nc3ccccc3)nc21 | – | –
59 | 190 nM | 30 nM | Cn1c(=O)c(-c2c(Cl)cccc2Cl)cc2cnc(Nc3ccc(CCC(N)=O)cc3)nc21 | – | –
